The source of these data is patent US5234948A, “Optically active alkylenedioxybenzene derivatives and their use in therapy” (Mitsubishi Kasei Corporation, priority 1990, dated 1993).

The test system of one data set is rats. Kind of data set: conflict test (modified method of Vogel et al), anxiolytic activity. To be noted: oral, 1 hour after administration, control 7.4. The format is in vivo, rat. The method, then:
The conflict test was performed to examine the anxiolytic activity of compounds. A modification of the method of Vogel et al (Psychopharmacology21, 1, 1971) was used.
Rats were deprived of water for 38 hours prior to the first training session (unpunished session). Each animal was placed in a conflict test apparatus. The rat was allowed to drink water through a spout, and the frequency of drinking action within 10 min was counted. Only rats making more than 100 licks progressed to a further 24 hr deprivation of water. Twenty four hours after the unpunished session, the rat was placed again in the test box. The second session (pre-drug punished session) consisting of a 3 min period started when the rat completed 20 licks and received the first electric shock. After every 20 unpunished licks, subsequent licking was punished. Only rats in which the number of receiving the shocks was reduced by at most 25 times during the pre-drug punished session were included in the test.
The compound to be tested was orally administered to each rat. One hour after the administration, the rat was re-placed in the apparatus to be examined. The number of shocks was counted for three minutes. Buspirone, an anxioselective anxiolytic drug, was used as a positive control.
The anti-conflict activity was evaluated to be positive when the number of shocks in the treated group was higher than that in the control group.

The target of data set [1] is T1, 5-HT1A receptor (Rattus norvegicus, UniProt P19327).
T1 sequence (P19327 1-422): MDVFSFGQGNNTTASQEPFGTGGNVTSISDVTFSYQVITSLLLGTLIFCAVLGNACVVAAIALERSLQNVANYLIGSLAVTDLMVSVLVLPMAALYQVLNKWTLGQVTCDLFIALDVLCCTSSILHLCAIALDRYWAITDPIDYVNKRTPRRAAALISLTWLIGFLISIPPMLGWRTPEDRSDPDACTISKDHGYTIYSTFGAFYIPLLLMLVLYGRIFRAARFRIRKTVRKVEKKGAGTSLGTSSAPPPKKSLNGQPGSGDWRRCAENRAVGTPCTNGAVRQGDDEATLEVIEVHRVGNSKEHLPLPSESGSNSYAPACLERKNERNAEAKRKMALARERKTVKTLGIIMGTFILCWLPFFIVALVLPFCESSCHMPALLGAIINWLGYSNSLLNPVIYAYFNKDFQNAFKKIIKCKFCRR
The data set is described as follows: biochemical. The format is binding. The settings on record: displacement of [3H]8-OH-DPAT, rat brain membranes, 37° C., 10 minutes; test compounds as HCl salt. The method, then: Thus, rat brain was homogenized in Tris-HCl buffer and centrifuged. The resultant precipitates were homogenized again with Tris-HCl buffer and incubated at 37° C. for ten minutes. The mixture was centrifuged again, and the precipitates were homogenized with Tris-HCl buffer containing pergiline, calcium chloride, and ascorbic acid to obtain a membrane preparation for use in the binding assay.
The preparation was mixed with [3H]8-OH-DPAT and a compound to be tested, and incubated at 37° C. for 10 minutes, filtered with whatman GF/B filter. Radioactivity remaining on the filter was measured by […].
Affinity of the test compound to 5-HT1A receptor is represented by Ki value which is calculated from the following equation. [formula] wherein [L] is the concentration of [3H]8-OH-DPAT, Kd is a dissociation constant, and IC50 is the concentration of test compound requisite for attaining 50% inhibition of the binding of [3H]8-OH-DPAT.

For the next data set, the system named is male and female rats. Kind of data set: Acute Toxicity, oral, 7-days observation. To be noted: p.o., suspended in 0.5% CMC-Na. Type of data set: in vivo, rat. The method, then:
The compounds (I) suspended in 0.5% CMC-Na aqueous solution were orally administered to male and female rats, and 7-days observation was conducted. ALD (approximate lethal dose) value for Compound No. 1 was 100 mg/kg (p.o.).

For data set [2], the system named is 5-HT1A receptor. To be noted: in words, literature; cited from earlier work.

Structures can show the parent of a compound that is named as a salt.

In general, Ki refers to the dissociation constant of the complex between target and ligand, obtained from inhibition or displacement. `c1ccc2c(c1)OCC(CNCCCOc1ccc3c(c1)OCO3)O2` (racemic) [No. 1 (dl)]: in the data set on rats (0.25 mg/kg), the “Frequency of receiving the shocks” value is listed as 20.9 times/3 minutes. At 5-HT1A receptor [1], the Ki came out at 1.6 nM.
As to `c1ccc2c(c1)OCC(CNCCCOc1ccc3c(c1)OCCO3)O2` (racemic) [No. 2 (dl)], the Ki at 5-HT1A receptor [1] was 2.5 nM.
As for `c1ccc2c(c1)OCC(CNCCCOc1ccc3c(c1)OCCCO3)O2` (racemic) [No. 3 (dl)], at 5-HT1A receptor [1], the Ki worked out at 7.6 nM.
Turning to `c1ccc2c(c1)OCC(CNCCCCOc1ccc3c(c1)OCCCO3)O2` (racemic) [No. 6 (dl)], the Ki on 5-HT1A receptor [1] was found to be 2.9 nM.
For `c1ccc2c(c1)OCC(CNCCCCCOc1ccc3c(c1)OCO3)O2` (racemic) [No. 7 (dl)], the Ki on 5-HT1A receptor [1] was 4.09 nM.
In the case of `c1ccc2c(c1)OCC(CNCCCOc1cccc3c1OCO3)O2` (racemic) [No. 13 (dl)], the inhibition constant Ki on 5-HT1A receptor [1] worked out at 9.7 nM.
Turning to `c1ccc2c(c1)OC[C@H](CNCCCOc1ccc3c(c1)OCO3)O2` [Compound No. 1, 5-[3-{(2S)-(1,4-Benzodioxan-2-ylmethyl) -amino}propoxy[-1,3-benzodioxol hydrochloride], the “ALD (approximate lethal dose)” value in the data set with male and female rats is recorded as 100 mg/kg. Besides, the “Frequency of receiving the shocks” value in the data set with rats (0.05 mg/kg) is 20.1 times/3 minutes. Moreover, the Ki at 5-HT1A receptor [1] is 0.29 nM.
For `c1ccc2c(c1)OC[C@H](CNCCCCOc1ccc3c(c1)OCO3)O2` [Compound No. 4, 5-[4-{(2S)-(1,4-Benzodioxan-2-ylmethyl) -amino}butoxy]-1,3-benzodioxol hydrochloride], on 5-HT1A receptor [1], the inhibition constant Ki was found to be 0.91 nM.
Consider `c1ccc2c(c1)OC[C@H](CNCCCCCOc1ccc3c(c1)OCO3)O2` [Compound No. 7, 5-[5-{(2S)-(1,4-Benzodioxan-2-ylmethyl) -amino}pentyloxy]-1,3-benzodioxol hydrochloride], for which, at 5-HT1A receptor [1], the Ki worked out at 1.84 nM.
As for `O=C1c2ccccc2S(=O)(=O)N1CCCCN1CCN(c2ncccn2)CC1` [Ipsapirone, 2-{4-[4-(2-pyrimidinyl)-1-piperazynyl]butyl}-1,2-benzisothiazol-3-(2H)one-1,1-dioxydehydrochloride], the “5-HT1A receptor binding (known compounds)” value in the data set with 5-HT1A receptor [2] is given as 5-HT1A receptor-binding compounds.
As to `c1ccc2c(c1)OC[C@@H](CNCCCOc1ccc3c(c1)OCO3)O2` [No. 1 (R)], the “Frequency of receiving the shocks” value with rats (0.5 mg/kg) was found to be 12.5 times/3 minutes. For the same molecule, the Ki at 5-HT1A receptor [1] is 3.9 nM.
For the molecule `O=C1C2C3CCC(C3)C2C(=O)N1CCCCN1CCN(c2ncccn2)CC1` (stereo not drawn) [SM-3997, 3aα, 4β, 7β, 7aβ-hexahydro-2-{4-[4-(2-pyrimidinyl)-1-piperazinyl]butyl}-4,7-methan-1H-isoindol-1,3(2H)dione dihydrogen citrate], the “5-HT1A receptor binding (known compounds)” value in the data set on 5-HT1A receptor [2] was 5-HT1A receptor-binding compounds.
In the case of `c1ccc2c(c1)OC[C@H](CNCCCOc1ccc3c(c1)OCCO3)O2` [compound 2], the “Frequency of receiving the shocks” value in the data set on rats (0.2 mg/kg) is 21.8 times/3 minutes.
As for `c1ccc2c(c1)OC[C@H](CNCCCOc1ccc3c(c1)OCCCO3)O2` [compound 3], in the data set on rats (0.2 mg/kg), the “Frequency of receiving the shocks” value came out at 18.0 times/3 minutes.
